This is an account of results in patent publication US6846182B1, “Dental bleaching composition and method” (priority 1996, dated 2005).

The procedure of this experiment: Fluoride has been used in dentistry to reduce sensitivity for many years. Often, when the root surface of teeth is exposed to the oral cavity due to gingival recession, these teeth become sensitive to hot, cold and sometimes sweets. […] This post bleaching pain usually has an onset of about 2 hours post-bleaching and lasts for 2 or more days.

As to neutral sodium fluoride, where the note is “applied 5 minutes post bleaching”, the post-bleaching pain level entry is “often diminished”. The post-bleaching sensitivity result (applied at least 10 minutes after bleaching is completed) was “almost completely eliminated”.
